Patent publication US8282721B2, “Coloring composition, thermal transfer recording ink sheet, thermal transfer recording method, color toner, inkjet ink, color filter, and arylidene-pyrazolone dye” (FUJIFILM Corporation, priority 2008, dated 2012)

Experiments:
Format in all cases: physicochemical
[1] = Dye solubility in methyl ethyl ketone/toluene; parameters: key: A (easily soluble); B (soluble); C (difficult to dissolve, but soluble); conditions: solvent methyl ethyl ketone/toluene (1/1, w/w), ranked in three
Excerpt: The dye solubility of each compound in the solvent of methyl ethyl ketone/toluene (1/1, w/w) was ranked in three, A (easily soluble), B (soluble), C (difficult to dissolve, but soluble).

[2] = Light fastness of thermal transfer recorded image (Xe light exposure); conditions: Xe light (17000 lux) for 7 days; retention of status A reflection density 1.0; image from thermal transfer ink sheet
Excerpt: (§1) The thermal transfer recording ink sheet produced in Example 201 and the image-receiving material constructed as above were combined in such a manner that the dye-donating layer could face the image-receiving layer, and this was printed using a thermal head applied to the back of the dye-donating material. The output power of the thermal head was 0.25 W/dot, pulse width was from 0.15 to 15 msec, the dot density was 6 dots/mm. In that manner, the magenta dye was imagewise fixed on the image-receiving layer of the image-receiving material, and as a result, a sharp image print with no transfer unevenness was obtained.
(§2) The thermal transfer recording ink sheets produced in Example 202 to 204 and produced in Comparative Example 201 to 203 were used in place of the thermal transfer recording ink sheet produced in Example 201, tested for image recording.
Next, the thermal transfer image-receiving material that had been recorded by the thermal transfer were exposed to a Xe light (17000 lux) for 7 days, and tested for the light stability (light fastness) of the recorded images. After the exposure, the status A reflection density of the part of each sample having an original status A reflection density of 1.0 before the exposure was measured, and the retention (by percentage) to the reflection density of 1.0 after exposure to that before exposure indicates the image stability. With the retention percentage, the samples were ranked in three, A (from 90% to less than 100%), B (from 80% to less than 90%), C (less than 80%).

[3] = Wet heat fastness of thermal transfer recorded image (80° C., 70% RH, dark); conditions: 80° C. and 70% RH in a dark place for 7 days; retention of Status A reflection density 1.0; image from thermal transfer ink sheet
Excerpt: as §1, §2
Further, the thermal transfer image-receiving material that had been recorded by the thermal transfer in the same manner as above were stored under the condition of 80° C. and 70% RH in a dark place for 7 days, and checked for the wet heat stability (wet heat fastness) of the image. After exposure to light, the Status A reflection density of the area having an initial Status A reflection density of 1.0 was measured; and the density retentiveness (percentage) relative to the original reflection density 1.0 before exposure to light was computed. Based on the computed data, the samples were evaluated with regard to the stability into three ranks, A (from 90% to less than 100%), B (from 80% to less than 90%), and C (less than 80%).

[4] = Evaluation of maximum absorption wavelength (absorption spectrometry in ethyl acetate solution); conditions: concentration 1×10^−6 mol/L, optical path length 10 mm
Method: <Evaluation of Maximum Absorption Wavelength>
The thus-obtained arylidene-pyrazolone dyes of Examples 101 to 105 were analyzed absorption spectrometry in an ethyl acetate solution (concentration: 1×10^−6 mol/L, optical path length: 10 mm).

Compound | Solubility [1] | Light Fastness [2] | Wet Heat Fastness [3] | Maximum Absorption Wavelength [4] [nm]
CCOC1=NN(c2ccccc2)C(=O)/C1=C\c1ccc(N(CC)CC)cc1 [Comparative Dye 2] | B | A (A (from 90% to less than 100%)) | C (C (less than 80%)) | 
CCOC1=NN(C)C(=O)/C1=C\c1ccc(N(CC)CC)cc1 [Comparative Dye 3] | A | B (B (from 80% to less than 90%)) | C (C (less than 80%)) | 
CCOC1=NN(S(C)(=O)=O)C(=O)/C1=C\c1ccc(N(CC)CC)cc1 [Compound Y-1] | A | A (A (from 90% to less than 100%)) | A (A (from 90% to less than 100%)) | 468
CCOC1=NN(S(=O)(=O)N(C)C)C(=O)/C1=C\c1ccc(N(CC)CC)cc1 [Compound Y-8] | A | A (A (from 90% to less than 100%)) | A (A (from 90% to less than 100%)) | 462
C.I.Disperse Yellow 201 [Comparative Dye 1] | A | A (A (from 90% to less than 100%)) | C (C (less than 80%)) | 
